The subject of one experiment is Rat white adipocytes. The experiment is described as follows: Stimulation of differentiation of the adipocytes (Oil Red O). It counts as cell-based. Conditions: Rattus norvegicus, Adipocyte, 120 h, 100 nM test compound; 5 days; Oil Red O ABS550; control = 100%, blank = 0%; Table 7; read-out: Rate of Differentiation (%). In outline:
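Oil Red O lipid staining, absorbance 550 nm after DMSO extraction, quantified differentiation of rat white adipocytes exposed 5 days to compound (final 100 nM, 0.1% DMSO) in differentiation medium. Percent differentiation normalised between cell-free blank (0%) and DMSO control (100%).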

For another experiment, the system named is leptin production. In words: Enhancing activity for leptin production in adipocytes (ELISA). The class given is cell-based, rat. Conditions: leptin concentration as % of control group; for activity at 1 µM / activity at 0.1 µM / activity at 0.001 µM / activity at 0.01 µM: Rattus norvegicus, Adipocyte, 24 h, read-out: Facilitating activity to produce leptin; for activity at 0.001 µM: 1 nm; for Facilitating activity to produce leptin: 24 hr. In outline: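 Leptin release, quantified by rat leptin ELISA, expressed as percent of 0.1% DMSO control after 24 h at 37 °C. Cells were floating adipocytes isolated by collagenase digestion of epididymal fat from male 6-week Wistar Imamichi rats; compound tested at 1 nM–1 µM final.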

SMILES strings stand for the structures. Where a name gives a salt, the structure may show the parent alone.

Turning to `Cc1ccc(NC(=O)c2cc([N+](=O)[O-])ccc2Cl)cc1` [Example 1, N-(4-Methylphenyl)-(2-chloro-5-nitrophenyl)carboxamide], the activity at 0.1 µM with Rat white adipocytes turned out to be 121%.

Consider `Cc1cnc(NC(=O)c2cc([N+](=O)[O-])ccc2Cl)s1` [Example 4, N-(5-Methylthiazol-2-yl)-(2-chloro-5-nitrophenyl)carboxamide], for which the activity at 0.1 µM in the experiment on Rat white adipocytes was determined as 128%.

For `COc1ccc(NC(=O)c2cc([N+](=O)[O-])ccc2Cl)cc1-c1ccccc1` [Example 6, N-(4-Methoxy-3-phenyl)phenyl-(2-chloro-5-nitrophenyl)carboxamide], in the experiment on leptin production (1 μM), the activity at 1 µM stood at 108%. Moreover, in the experiment on leptin production (100 nm), the activity at 0.1 µM was determined as 111%.

For the compound `O=C(Nc1ccc(-c2ccccn2)cc1)c1cc([N+](=O)[O-])ccc1Cl` [Example 8, N-[4-(2-Pyridyl)phenyl]-(2-chloro-5-nitrophenyl)carboxamide], in the experiment on Rat white adipocytes, the activity at 0.1 µM was 114%.

As to `Cc1ccc2nc(-c3ccc(NC(=O)c4cc([N+](=O)[O-])ccc4Cl)cc3)sc2c1` [Example 10, N-[4-(6-Methylbenzothiazol-2-yl)phenyl]-(2-chloro-5-nitrophenyl)carboxamide], the activity at 1 µM in the experiment with leptin production (1 μM) stood at 118%.

`CCCCCc1ccc(NC(=O)c2cc([N+](=O)[O-])ccc2Cl)cc1` [Example 16, N-(4-Pentylphenyl)-(2-chloro-5-nitrophenyl)carboxamide]: the activity at 0.1 µM with Rat white adipocytes worked out at 136%.

In the case of `N#Cc1ccc(NC(=O)c2cc([N+](=O)[O-])ccc2Cl)cc1` [Example 20, N-(4-Cyanophenyl)-(2-chloro-5-nitrophenyl)carboxamide], the activity at 1 µM in the experiment with leptin production (1 μM) is 126%. The activity at 0.001 µM in the experiment on leptin production was found to be 130%. In addition, in the experiment on leptin production (10 nm), the activity at 0.01 µM worked out at 135%. In the experiment with leptin production (100 nm), the activity at 0.1 µM was found to be 155%.

Take `CCOC(=O)c1ccc(NC(=O)c2cc([N+](=O)[O-])ccc2Cl)cc1` [Example 26, N-(4-Ethoxycarbonylphenyl)-(2-chloro-5-nitrophenyl)carboxamide]: in the experiment with leptin production (100 nm), the activity at 0.1 µM was 115%.

Regarding `O=C(Nc1cccc(NS(=O)(=O)c2ccccc2)c1)c1cc([N+](=O)[O-])ccc1Cl` [Example 30, N-(3-Benzensulfonylaminophenyl)-(2-chloro-5-nitrophenyl)carboxamide], in the experiment on Rat white adipocytes, the activity at 0.1 µM turned out to be 139%.

In the case of `Cc1ccccc1-c1csc(NC(=O)c2cc([N+](=O)[O-])ccc2Cl)n1` [Example 39, N-[4-(2-Methylphenyl)thiazol-2-yl]-(2-chloro-5-nitrophenyl)carboxamide], the activity at 1 µM with leptin production (1 μM) turned out to be 119%. In the experiment on leptin production (100 nm), the activity at 0.1 µM stood at 109%.

Take `O=C(Nc1cccnc1)c1cc([N+](=O)[O-])ccc1Cl` [Example 50, N-(3-Pyridyl)-(2-chloro-5-nitrophenyl)carboxamide]: in the experiment with leptin production (1 μM), the activity at 1 µM amounted to 109%. In the experiment on leptin production, the activity at 0.001 µM came to 118%. The activity at 0.01 µM with leptin production (10 nm) came to 124%. In addition, the activity at 0.1 µM in the experiment on leptin production (100 nm) was found to be 119%.

With `Cc1cc(Cl)nc(NC(=O)c2cc([N+](=O)[O-])ccc2Cl)n1` [Example 78, N-(4-Chloro-6-methylpyrimidin-2-yl)-(2-chloro-5-nitrophenyl)carboxamide], in the experiment with leptin production (1 μM), the activity at 1 µM was found to be 114%. The activity at 0.1 µM in the experiment on leptin production (100 nm) is 126%.

In the case of `O=C(Nc1cccc2nsnc12)c1cc([N+](=O)[O-])ccc1Cl` [Example 86, N-(2,1,3-Benzothiazol-4-yl)-(2-chloro-5-nitrophenyl)carboxamide], the activity at 0.1 µM in the experiment on leptin production (100 nm) is 110%.

Take `CC(C)(C)OC(=O)Nc1ccc(-c2ccc(NC(=O)c3cc([N+](=O)[O-])ccc3Cl)cc2)cc1` [Example 87, N-[4-[4-(tert-Butoxycarbonylamino)phenyl]phenyl]-(2-chloro-5-nitrophenyl)carboxamide]: the activity at 1 µM in the experiment on leptin production (1 μM) is 115%. Also, the activity at 0.1 µM with leptin production (100 nm) stood at 113%.

For `O=C(Nc1ccc(S(=O)(=O)Nc2cccnc2)cc1)c1cc([N+](=O)[O-])ccc1Cl` [Example 178], the activity at 1 µM with leptin production (1 μM) is 117%.

Consider `CCCCCCNc1ccc(-c2ccc(NC(=O)c3cc([N+](=O)[O-])ccc3Cl)cc2)cc1` [Example 195, N-[4-[4-(N-Hexylamino)phenyl]phenyl]-(2-chloro-5-nitrophenyl)carboxamide], for which the activity at 1 µM with leptin production (1 μM) was 120%. The activity at 0.01 µM with leptin production (10 nm) worked out at 114%. In the experiment with leptin production (100 nm), the activity at 0.1 µM was 123%.

For the compound `CCCCCCCCNc1ccc(-c2ccc(NC(=O)c3cc([N+](=O)[O-])ccc3Cl)cc2)cc1` [Example 219, N-[4-[4-(N-Octylamino)phenyl]phenyl]-(2-chloro-5-nitrophenyl)carboxamide], the activity at 1 µM in the experiment on leptin production (1 μM) stood at 117%. Further, in the experiment with leptin production (10 nm), the activity at 0.01 µM was 113%. The activity at 0.1 µM with leptin production (100 nm) was determined as 119%.

As to `CCCCCCCCN(CCCCCC)c1ccc(-c2ccc(NC(=O)c3cc([N+](=O)[O-])ccc3Cl)cc2)cc1` [Example 220, N-[4-[4-(N-Hexyl-N-octylamino)phenyl]phenyl]-(2-chloro-5-nitrophenyl)carboxamide mono-hydrochloride], the activity at 1 µM in the experiment on leptin production (1 μM) is 111%.

Take `CCCCCCCCN(CCCC)c1ccc(-c2ccc(NC(=O)c3cc([N+](=O)[O-])ccc3Cl)cc2)cc1` [Example 222, N-[4-[4-(N-Butyl-N-octylamino)phenyl]phenyl]-(2-chloro-5-nitrophenyl)carboxamide]: the activity at 1 µM in the experiment with leptin production (1 μM) was 114%. In addition, the activity at 0.01 µM with leptin production (10 nm) came to 110%. Also, the activity at 0.1 µM with leptin production (100 nm) was determined as 109%.

Regarding `CCCCCCCCN(CCCC)c1ccc(-c2ccc(NC(=O)c3cc([N+](=O)[O-])ccc3Cl)cc2)cc1.Cl` [Example 223, N-[4-[4-(N-Butyl-N-octylamino)phenyl]phenyl]-(2-chloro-5-nitrophenyl)carboxamide mono-hydrochloride], the results for the “Facilitating activity to produce leptin” value in the experiment with leptin production (1 μM), in the experiment on leptin production (10 nm) and with leptin production (100 nm) were 115.9%, 109.0% and 115.2%, respectively.

With `CCCCCCCCN(CCC)c1ccc(-c2ccc(NC(=O)c3cc([N+](=O)[O-])ccc3Cl)cc2)cc1` [Example 224, N-[4-[4-(N-Octyl-N-propylamino)phenyl]phenyl]-(2-chloro-5-nitrophenyl)carboxamide], the activity at 1 µM in the experiment with leptin production (1 μM) came to 113%. Also, the activity at 0.01 µM in the experiment on leptin production (10 nm) came out at 110%. Also, the activity at 0.1 µM with leptin production (100 nm) stood at 112%.

As to `CCCCCCCCN(CC)c1ccc(-c2ccc(NC(=O)c3cc([N+](=O)[O-])ccc3Cl)cc2)cc1` [Example 225, N-[4-[4-(N-Ethyl-N-octylamino)phenyl]phenyl]-(2-chloro-5-nitrophenyl)carboxamide], the activity at 1 µM in the experiment with leptin production (1 μM) was 117%. The activity at 0.01 µM in the experiment with leptin production (10 nm) was determined as 107%. For the same compound, the activity at 0.1 µM in the experiment with leptin production (100 nm) turned out to be 108%.

In the case of `O=C(Nc1ccc(N2CCN(C(=O)c3ccncc3)CC2)cc1)c1cc([N+](=O)[O-])ccc1Cl` [Example 228, N-[4-[4-(Pyridin-4-ylcarbonyl)piperazin-1-yl]phenyl]-(2-chloro-5-nitrophenyl)carboxamide], the activity at 1 µM in the experiment on leptin production (1 μM) was determined as 112%. In the experiment with leptin production (10 nm), the activity at 0.01 µM was 119%. Also, the activity at 0.1 µM in the experiment with leptin production (100 nm) was found to be 122%.

As for `O=C(Nc1ccc(CCO)cc1)c1cc([N+](=O)[O-])ccc1Cl` [Example 230, N-[4-(2-Hydroxyethyl)phenyl]-(2-chloro-5-nitrophenyl)carboxamide], the activity at 0.01 µM with leptin production (10 nm) is 110%.

Regarding `O=C(Nc1ccc(-n2ccnc2)cc1)c1cccc(NC(=O)c2cc([N+](=O)[O-])ccc2Cl)c1` [Example 231, N-[[3-[4-(Imidazol-1-yl)phenyl]aminocarbonyl]phenyl]-(2-chloro-5-nitrophenyl)carboxamide], the activity at 0.01 µM in the experiment on leptin production (10 nm) worked out at 128%. For the same compound, in the experiment with leptin production (100 nm), the activity at 0.1 µM came out at 155%.

For the compound `Nc1nc(-c2cccc(NC(=O)c3cc([N+](=O)[O-])ccc3Cl)c2)cs1` [Example 233, N-[3-(2-Amiothiazol-4-yl)phenyl]-(2-chloro-5-nitrophenyl)carboxamide], the activity at 0.01 µM with leptin production (10 nm) was found to be 112%. Moreover, the activity at 0.1 µM in the experiment on leptin production (100 nm) was 121%.

As for `CS(=O)(=O)N(c1ccc(-c2ccc(NC(=O)c3cc([N+](=O)[O-])ccc3Cl)cc2)cc1)S(C)(=O)=O` [Example 235, N-[4-[4-(N,N-Dimethanesulfonylamino)phenyl]phenyl]-(2-chloro-5-nitrophenyl)carboxamide], the activity at 1 µM in the experiment with leptin production (1 μM) came out at 143%. The activity at 0.01 µM in the experiment on leptin production (10 nm) was found to be 111%. The activity at 0.1 µM in the experiment with leptin production (100 nm) amounted to 121%.

For the compound `O=C(Nc1ccc(-c2ccc(NC(=S)Nc3ccncc3)cc2)cc1)c1cc([N+](=O)[O-])ccc1Cl` [Example 258, N-[4-[4-[(Pyridin-4-yl)aminothiocarbonylamino]phenyl]phenyl]-(2-chloro-5-nitrophenyl)carboxamide], the activity at 1 µM with leptin production (1 μM) worked out at 112%. Besides, the activity at 0.01 µM in the experiment with leptin production (10 nm) worked out at 120%. The activity at 0.1 µM in the experiment on leptin production (100 nm) is 114%.

`O=C(Nc1ccc(NC(=S)Nc2ccncc2)cc1)c1cc([N+](=O)[O-])ccc1Cl` [Example 259, N-[4-[(Pyridin-4-yl)aminothiocarbonylamino]phenyl]-(2-chloro-5-nitrophenyl)carboxamide]: the activity at 0.01 µM in the experiment with leptin production (10 nm) was determined as 111%. Also, the activity at 0.1 µM in the experiment on leptin production (100 nm) was determined as 110%.

`NCCc1ccc(NC(=O)c2cc([N+](=O)[O-])ccc2Cl)cc1` [Example 267, N-[4-(2-Aminoethyl)phenyl]-(2-chloro-5-nitrophenyl)carboxamide]: the activity at 0.01 µM in the experiment with leptin production (10 nm) is 118%. Also, the activity at 0.1 µM in the experiment with leptin production (100 nm) was 110%.

The values above are taken from patent publication US20030134859A1 (SANKYO COMPANY, LIMITED, priority 2000, published 2003).
